Source: PubChem BioAssay AID248 (DTP/NCI, 2004)
Values joined by “and” are separate entries in the source; they are usually repeats but may differ in a detail not shown here. Equal entries are not always repeated. Toxic doses and inconclusive results are not listed.

System: L1210 leukemia ip in BDF1 mice, survival T/C
Test: NCI In Vivo Anticancer Drug Screen. Data for tumor model L1210 Leukemia (intraperitoneal) in B6D2F1 (BDF1) mice
Conditions: endpoint: mean survival time, higher = longer survival
How it was run: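 In this screen, tumor-bearing mice given compound are compared to those given vehicle, and their survival values are reported as a treated-to-control quotient.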

[1] = dose: 100.0 mg/kg/injection, schedule: Q01DX001 (ip), vehicle: carboxymethylcellulose (CMC)
[2] = dose: 200.0 mg/kg/injection, schedule: Q01DX001 (ip), vehicle: carboxymethylcellulose (CMC)
[3] = dose: 50.0 mg/kg/injection, schedule: Q01DX009 (ip), vehicle: Klucel (hydroxypropylcellulose) (HPC)
[4] = dose: 200.0 mg/kg/injection, schedule: Q01DX009 (ip), vehicle: Klucel (hydroxypropylcellulose) (HPC)
[5] = dose: 100.0 mg/kg/injection, schedule: Q01DX009 (ip), vehicle: Klucel (hydroxypropylcellulose) (HPC)
[6] = dose: 100.0 mg/kg/injection, schedule: Q04DX002 (ip), vehicle: Klucel (hydroxypropylcellulose) (HPC)
[7] = dose: 200.0 mg/kg/injection, schedule: Q04DX002 (ip), vehicle: Klucel (hydroxypropylcellulose) (HPC)
[8] = dose: 400.0 mg/kg/injection, schedule: Q04DX002 (ip), vehicle: Klucel (hydroxypropylcellulose) (HPC)
[9] = dose: 50.0 mg/kg/injection, schedule: Q01DX001 (ip), vehicle: saline
[10] = dose: 100.0 mg/kg/injection, schedule: Q01DX001 (ip), vehicle: saline
[11] = dose: 200.0 mg/kg/injection, schedule: Q01DX001 (ip), vehicle: saline
[12] = dose: 400.0 mg/kg/injection, schedule: Q01DX001 (ip), vehicle: saline

## CC1(c2ccccc2)CCC(NN=C(N)N)=NC1 (stereo not drawn)
dose: 15.0 mg/kg/injection, schedule: Q01DX Z (ip), vehicle: methylcellulose (MC)
  T/C: 95 % of control
dose: 30.0 mg/kg/injection, schedule: Q01DX Z (oral), vehicle: methylcellulose (MC)
  T/C: 97 % of control
dose: 60.0 mg/kg/injection, schedule: Q01DX Z (ip), vehicle: methylcellulose (MC)
  T/C: 101 % of control
dose: 60.0 mg/kg/injection, schedule: Q01DX Z (oral), vehicle: methylcellulose (MC)
  T/C: 91 % of control
dose: 120.0 mg/kg/injection, schedule: Q01DX Z (ip), vehicle: methylcellulose (MC)
  T/C: 95 % of control
dose: 120.0 mg/kg/injection, schedule: Q01DX Z (oral), vehicle: methylcellulose (MC)
  T/C: 101 % of control
dose: 240.0 mg/kg/injection, schedule: Q01DX Z (ip), vehicle: methylcellulose (MC)
  T/C: 93 % of control
dose: 240.0 mg/kg/injection, schedule: Q01DX Z (oral), vehicle: methylcellulose (MC)
  T/C: 93 % of control
dose: 375.0 mg/kg/injection, schedule: Q01DX Z (oral), vehicle: methylcellulose (MC)
  T/C: 89 % of control
dose: 420.0 mg/kg/injection, schedule: Q01DX Z (ip), vehicle: methylcellulose (MC)
  T/C: 93 % of control
dose: 500.0 mg/kg/injection, schedule: Q01DX Z (oral), vehicle: methylcellulose (MC)
  T/C: 86 % of control
dose: 600.0 mg/kg/injection, schedule: Q01DX Z (ip), vehicle: methylcellulose (MC)
  T/C: 92 % of control
dose: 625.0 mg/kg/injection, schedule: Q01DX Z (oral), vehicle: methylcellulose (MC)
  T/C: 93 % of control

## NC(=O)C1(Nc2ccc(-c3ccc(NC4(C(N)=O)CCCC4)cc3)cc2)CCCC1
dose: 50.0 mg/kg/injection, schedule: Q01DX001 (ip), vehicle: carboxymethylcellulose (CMC)
  T/C: 95 % of control
[1]
  T/C: 90 % of control
[2]
  T/C: 93 % of control

## Cc1ccc([N+](=O)[O-])cc1NC(=O)Nc1onc(C)c1C
[3]
  T/C: 90 % of control
[4]
  T/C: 87 % of control

## O=C(N/N=C\c1cc(Cl)ccc1[N+](=O)[O-])c1ccco1
dose: 200.0 mg/kg/injection, schedule: Q01DX001 (ip), vehicle: other
  T/C: 93 % of control

## Cc1cc2c(C)nc3ccccc3n2c1O
[3]
  T/C: 103 % of control
[5]
  T/C: 103 % of control
[4]
  T/C: 98 % of control

## O=C(O)c1cc(Br)ccc1O
[6]
  T/C: 98 % of control
[7]
  T/C: 98 % of control
[8]
  T/C: 102 % of control

## COc1ccc(C2(OC)Oc3cc(OC)ccc3C(=O)C2(O)OC)cc1 (stereo not drawn)
[9]
  T/C: 98 % of control
[10]
  T/C: 104 % of control

## NS(=O)(=O)c1ccc(NC(=O)Nc2cccc3ccccc23)cc1
dose: 100.0 mg/kg/injection, schedule: Q01DX001 (ip), vehicle: saline with Tween-80
  T/C: 91 % of control
dose: 100.0 mg/kg/injection, schedule: Q01DX009 (ip), vehicle: saline with Tween-80
  T/C: 101 % of control and 108 % of control
dose: 100.0 mg/kg/injection, schedule: Q04DX002 (ip), vehicle: saline with Tween-80
  T/C: 95 % of control and 100 % of control
dose: 100.0 mg/kg/injection, schedule: Q04DX003 (ip), vehicle: saline with Tween-80
  T/C: 105 % of control
dose: 200.0 mg/kg/injection, schedule: Q01DX001 (ip), vehicle: saline with Tween-80
  T/C: 87 % of control
dose: 200.0 mg/kg/injection, schedule: Q01DX009 (ip), vehicle: saline with Tween-80
  T/C: 93 % of control and 100 % of control
dose: 200.0 mg/kg/injection, schedule: Q04DX002 (ip), vehicle: saline with Tween-80
  T/C: 98 % of control and 100 % of control
dose: 200.0 mg/kg/injection, schedule: Q04DX003 (ip), vehicle: saline with Tween-80
  T/C: 103 % of control
dose: 400.0 mg/kg/injection, schedule: Q01DX001 (ip), vehicle: saline with Tween-80
  T/C: 94 % of control
dose: 400.0 mg/kg/injection, schedule: Q01DX009 (ip), vehicle: saline with Tween-80
  T/C: 96 % of control and 105 % of control
dose: 400.0 mg/kg/injection, schedule: Q04DX002 (ip), vehicle: saline with Tween-80
  T/C: 93 % of control and 96 % of control
dose: 400.0 mg/kg/injection, schedule: Q04DX003 (ip), vehicle: saline with Tween-80
  T/C: 108 % of control

## O=C1c2cc([N+](=O)[O-])ccc2-c2ccc([N+](=O)[O-])cc21
[3]
  T/C: 95 % of control and 90 % of control
[1]
  T/C: 89 % of control
[5]
  T/C: 109 % of control
[6]
  T/C: 101 % of control
[2]
  T/C: 87 % of control
[4]
  T/C: 98 % of control and 102 % of control
[7]
  T/C: 113 % of control
dose: 400.0 mg/kg/injection, schedule: Q01DX001 (ip), vehicle: carboxymethylcellulose (CMC)
  T/C: 97 % of control
[8]
  T/C: 89 % of control

## Clc1cc[n+](-c2ccncc2)cc1
[10]
  T/C: 103 % of control
dose: 100.0 mg/kg/injection, schedule: Q01DX009 (ip), vehicle: saline
  T/C: 100 % of control and 105 % of control
dose: 100.0 mg/kg/injection, schedule: Q04DX002 (ip), vehicle: saline
  T/C: 97 % of control and 103 % of control
dose: 100.0 mg/kg/injection, schedule: Q04DX003 (ip), vehicle: saline
  T/C: 95 % of control
[11]
  T/C: 90 % of control
dose: 200.0 mg/kg/injection, schedule: Q01DX009 (ip), vehicle: saline
  T/C: 105 % of control and 89 % of control
dose: 200.0 mg/kg/injection, schedule: Q04DX002 (ip), vehicle: saline
  T/C: 94 % of control and 89 % of control
dose: 200.0 mg/kg/injection, schedule: Q04DX003 (ip), vehicle: saline
  T/C: 101 % of control
[12]
  T/C: 97 % of control
dose: 400.0 mg/kg/injection, schedule: Q01DX009 (ip), vehicle: saline
  T/C: 97 % of control
dose: 400.0 mg/kg/injection, schedule: Q04DX002 (ip), vehicle: saline
  T/C: 100 % of control and 92 % of control
dose: 400.0 mg/kg/injection, schedule: Q04DX003 (ip), vehicle: saline
  T/C: 88 % of control

## COc1cc(Cc2nccc3cc(OC)c(OC)cc23)c(C(C)=O)cc1OC
dose: 0.9 mg/kg/injection, schedule: Q03HX024 (ip), vehicle: saline
  T/C: 98 % of control
dose: 1.8 mg/kg/injection, schedule: Q03HX024 (ip), vehicle: saline
  T/C: 97 % of control
dose: 2.9 mg/kg/injection, schedule: Q01DX Z (ip), vehicle: saline
  T/C: 107 % of control
dose: 3.5 mg/kg/injection, schedule: Q03HX024 (ip), vehicle: saline
  T/C: 107 % of control
dose: 4.4 mg/kg/injection, schedule: Q01DX Z (ip), vehicle: saline
  T/C: 111 % of control
dose: 6.6 mg/kg/injection, schedule: Q01DX Z (ip), vehicle: saline
  T/C: 115 % of control
dose: 7.0 mg/kg/injection, schedule: Q03HX024 (ip), vehicle: saline
  T/C: 111 % of control
dose: 7.0 mg/kg/injection, schedule: Q04DX003 (ip), vehicle: saline
  T/C: 97 % of control
dose: 10.0 mg/kg/injection, schedule: Q01DX Z (ip), vehicle: saline
  T/C: 119 % of control
dose: 14.0 mg/kg/injection, schedule: Q04DX003 (ip), vehicle: saline
  T/C: 104 % of control
dose: 22.0 mg/kg/injection, schedule: Q01DX009 (ip), vehicle: saline
  T/C: 121 % of control
dose: 28.0 mg/kg/injection, schedule: Q04DX003 (ip), vehicle: saline
  T/C: 120 % of control
dose: 33.0 mg/kg/injection, schedule: Q01DX009 (ip), vehicle: saline
  T/C: 109 % of control
dose: 35.0 mg/kg/injection, schedule: Q01DX009 (ip), vehicle: saline
  T/C: 121 % of control
dose: 50.0 mg/kg/injection, schedule: Q01DX009 (ip), vehicle: saline
  T/C: 154 % of control
dose: 56.0 mg/kg/injection, schedule: Q04DX003 (ip), vehicle: saline
  T/C: 118 % of control
dose: 75.0 mg/kg/injection, schedule: Q01DX009 (ip), vehicle: saline
  T/C: 108 % of control
dose: 75.0 mg/kg/injection, schedule: Q01DX Z (ip), vehicle: saline
  T/C: 93 % of control

## CCCCS/C=C1/CC2(C)C(CCC3C4CCC(O)C4(C)CCC32)CC1=O (stereo not drawn)
dose: 100.0 mg/kg/injection, schedule: Q04DX003 (ip), vehicle: Klucel (hydroxypropylcellulose) (HPC)
  T/C: 89 % of control
dose: 200.0 mg/kg/injection, schedule: Q04DX003 (ip), vehicle: Klucel (hydroxypropylcellulose) (HPC)
  T/C: 91 % of control

## CCCCCCCCC(Br)C(Br)CCCCCCCC(=O)O (stereo not drawn)
dose: 25.0 mg/kg/injection, schedule: Q04DX002 (ip), vehicle: saline with Tween-80
  T/C: 93 % of control
dose: 50.0 mg/kg/injection, schedule: Q04DX002 (ip), vehicle: saline with Tween-80
  T/C: 96 % of control

## CN1C(=O)c2c(ccc3c2OCO3)C2C(O)Cc3cc4c(cc3C21)OCO4 (stereo not drawn)
[10]
  T/C: 100 % of control
[11]
  T/C: 94 % of control
[12]
  T/C: 107 % of control

## O=c1c2ccccc2nc2n1CCC2
dose: 25.0 mg/kg/injection, schedule: Q01DX001 (ip), vehicle: saline
  T/C: 102 % of control
[9]
  T/C: 93 % of control
dose: 75.0 mg/kg/injection, schedule: Q01DX001 (ip), vehicle: saline
  T/C: 104 % of control
